The results in this text go back to ChEMBL document CHEMBL1821672, “Indolin-2-one p38α inhibitors II: Lead optimisation” (Bioorg Med Chem Lett, 2011).

≈ marks a conversion by molar mass, not a printed value.

Series [1] is described as follows: Metabolic stability in rat hepatic microsomes assessed as compound turnover at 5 uM in presence of NADPH after 30 mins. In kind it is ADME. The following applies: liver microsomes, read-out: Activity.
A short description of series [2]: Metabolic stability in rat hepatic microsomes assessed as compound turnover at 5 uM in absence of NADPH after 30 mins. The following applies: liver microsomes, read-out: Activity. It counts as ADME. (In general: Liver microsomes are vesicles of endoplasmic reticulum, rich in cytochrome P450 enzymes.)
Series [3] deals with Caco-2. Put plainly: (§1) Apparent permeability from apical to basolateral side of the human Caco2 cells. It counts as ADME, cell-based. Background: Passage across Caco-2 layers is used to estimate intestinal permeability.
The test system of series [4] is Caco-2. Put plainly: (§2) Apparent permeability from basolateral to apical side of human Caco2 cells. In kind it is ADME, cell-based.
Series [5] can be described thus: Mean residence time in rat at 1 mg/kg, iv. In kind it is ADME, organism-based. Set-up: dose 1 mg/kg, route intravenous. The settings on record: in vivo.
Series [6] in a line: AUC (0 to infinity) in rat at 10 mg/kg, po. The settings on record: plasma. In kind it is ADME, organism-based. Set-up: time infinity, dose 10 mg/kg, route oral.
A short description of series [7]: Solubility in aqueous media at pH 7.4. In kind it is physicochemical.
In series [8] the target is T1, Mitogen-activated protein kinase 14 (Homo sapiens, UniProt Q16539). Put plainly: Inhibition of p38alpha in human whole blood assessed as reduction in TNF-alpha production by ELISA. In general terms: ELISA stands for enzyme-linked immunosorbent assay.
Series [9] is described as follows: Metabolic stability in human hepatic microsomes assessed as compound turnover at 5 uM in presence of NADPH after 30 mins. The following applies: liver microsomes, read-out: Activity. In kind it is ADME.
The nature of series [10]: Metabolic stability in human hepatic microsomes assessed as compound turnover at 5 uM in absence of NADPH after 30 mins. In kind it is ADME. The settings on record: liver microsomes, read-out: Activity.
Series [11] can be described thus: Cytotoxicity against CHO cells at 200 uM. In kind it is cell-based, Cricetulus griseus. The settings on record: chinese hamster, read-out: INH.
A short description of series [12]: Terminal half life in rat at 1 mg/kg, iv. Set-up: dose 1 mg/kg, route intravenous. The following applies: in vivo, read-out: beta t1/2 (converted). In kind it is ADME, organism-based.
A short description of series [13]: Cmax in rat at 1 mg/kg, iv. Also on record: dose 1 mg/kg, route intravenous. The following applies: in vivo. In kind it is ADME, organism-based.
Series [14] in a line: Clearance in rat at 1 mg/kg, iv. Set-up: dose 1 mg/kg, route intravenous. It counts as ADME, organism-based. The settings on record: in vivo.
The nature of series [15]: AUC (0 to infinity) in rat at 1 mg/kg, iv. In kind it is ADME, organism-based. Set-up: time infinity, dose 1 mg/kg, route intravenous. The following applies: plasma.
The nature of series [16]: Volume of distribution at steady state in rat at 1 mg/kg, iv. In kind it is ADME, organism-based. Set-up: dose 1 mg/kg, route intravenous. The following applies: in vivo, read-out: Vdss.
A short description of series [17]: Cmax in rat at 10 mg/kg, po. Set-up: dose 10 mg/kg, route oral. It counts as ADME, organism-based. The following applies: in vivo.
The next series is filed under the species Rattus norvegicus. The series can be described thus: Hepatic blood flow in rat. It counts as ADME, organism-based, Liver.
Series [18] can be described thus: Oral bioavailability in rat at 10 mg/kg. The settings on record: in vivo. In kind it is ADME, organism-based.
Series [19] concerns the target T1, Mitogen-activated protein kinase 14. Put plainly: Inhibition of human p38alpha using biotinylated ATF2 substrate by FRET assay.
Series [20] has as its target RAF proto-oncogene serine/threonine-protein kinase (Homo sapiens, UniProt P04049). The series can be described thus: Inhibition of human c-RAF.
A short description of series [21]: as §1. It counts as ADME, cell-based. The settings on record: caco-2.
The nature of series [22]: as §2. In kind it is ADME, cell-based. The settings on record: caco-2.

As a reminder, the MRT is a mean duration of stay, worked out from the concentration-time curve. In general, AUC(0-inf) refers to total exposure, with the tail of the curve extrapolated. The term solubility denotes the concentration that dissolves in the medium under given conditions. What is called IC50 is the concentration needed to halve the response being measured. For orientation: Cmax means the highest concentration seen after dosing. Broadly, the clearance is a measure of how efficiently the substance is removed, as volume per time. A low value points to inefficient removal. What is called bioavailability is dose-corrected exposure relative to a reference, in per cent. As usually defined, the Papp A→B is the apparent permeability from the apical to the basolateral side of a cell layer. The Papp B→A is the apparent permeability from the basolateral to the apical side of a cell layer.

T1 sequence (Q16539 whole entry): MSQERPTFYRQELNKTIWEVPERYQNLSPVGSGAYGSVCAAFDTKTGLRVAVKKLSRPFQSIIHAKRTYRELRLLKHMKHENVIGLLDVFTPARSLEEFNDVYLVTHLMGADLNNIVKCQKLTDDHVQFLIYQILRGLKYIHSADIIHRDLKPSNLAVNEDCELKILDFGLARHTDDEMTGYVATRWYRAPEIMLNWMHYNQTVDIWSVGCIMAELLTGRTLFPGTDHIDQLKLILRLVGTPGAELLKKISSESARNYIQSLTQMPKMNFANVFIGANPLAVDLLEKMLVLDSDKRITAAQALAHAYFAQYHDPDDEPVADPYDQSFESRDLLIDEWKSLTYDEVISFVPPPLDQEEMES
Chain of RAF proto-oncogene serine/threonine-protein kinase (P04049 whole entry): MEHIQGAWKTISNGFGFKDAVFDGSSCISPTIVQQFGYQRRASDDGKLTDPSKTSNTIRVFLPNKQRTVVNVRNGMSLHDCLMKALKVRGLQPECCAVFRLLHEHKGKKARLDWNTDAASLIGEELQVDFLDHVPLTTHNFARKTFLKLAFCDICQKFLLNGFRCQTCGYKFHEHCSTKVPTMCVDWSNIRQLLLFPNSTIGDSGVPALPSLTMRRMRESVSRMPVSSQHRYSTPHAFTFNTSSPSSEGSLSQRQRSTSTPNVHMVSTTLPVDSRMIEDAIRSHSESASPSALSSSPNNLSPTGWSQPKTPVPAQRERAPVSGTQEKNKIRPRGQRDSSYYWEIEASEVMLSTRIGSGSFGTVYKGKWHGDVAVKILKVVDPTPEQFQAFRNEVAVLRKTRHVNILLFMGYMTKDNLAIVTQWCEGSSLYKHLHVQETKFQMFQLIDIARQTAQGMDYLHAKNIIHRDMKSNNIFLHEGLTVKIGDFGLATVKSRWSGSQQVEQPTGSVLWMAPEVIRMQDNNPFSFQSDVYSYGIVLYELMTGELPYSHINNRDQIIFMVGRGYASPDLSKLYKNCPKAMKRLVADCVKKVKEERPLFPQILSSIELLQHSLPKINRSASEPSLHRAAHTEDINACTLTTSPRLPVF

As to `Cc1ccc(C(=O)NC2CC2)cc1-c1ccc2c(c1)NC(=O)C21CCCC1`, the metabolised at 0.5 h, 5 µM in series [1] is 44%; in series [2] it was below 5%. For the same compound, the Papp entry in the series with Caco-2 [3] and with Caco-2 [4] was “permeable” in each case. The mean residence time (MRT) in [5] was found to be 2.1 h. The compound further returned an AUC(0-inf) in [6] of 2.64 µg·h/mL. The same compound returned a solubility in series [7] of 3 µg/mL (≈ 8.32 µM).
For the compound `Cc1ccc(C(=O)NC2CC2)cc1-c1ccc2c(c1)NC(=O)C21CCN(C)CC1`, the IC50 in series [8] came out at 0.0096 µM. The results for the metabolised at 0.5 h, 5 µM in series [1], in [9] and in [10] were 13%, 15% and 17%, respectively. For the same compound, the cytotoxicity at 200 µM in [11] was found to be 40%. Besides, the Papp result in the series with Caco-2 [3] and in the series on Caco-2 [4] was “permeable” each time. Moreover, the half-life in series [12] was 5.1 h. Moreover, the Cmax turned out to be 0.133 µg/mL in [13] and 0.134 µg/mL in [17]. In addition, the clearance in series [14] is 4.4 L/h/kg. Moreover, the AUC(0-inf) stood at 0.226 µg·h/mL in [15] and 0.786 µg·h/mL in series [6]. The Vd in series [16] came to 19.1 L/kg. The compound further returned an MRT in series [5] of 4.3 h. The same compound gave a QH in the series filed under Rattus norvegicus above 85%. In [18], this compound returned a bioavailability of 35%.
Turning to `Cc1ccc(C(=O)NC2CC2)cc1-c1ccc2c(c1)NC(=O)C21CCOCC1`, the IC50 in [19] was found to be 0.00165 µM; in series [8] it was 0.014 µM; in series [20] it was 0.12 µM. The metabolised at 0.5 h, 5 µM was 16% in series [1], 34% in [9], below 5% in [2] and 40% in series [10]. The Papp result with Caco-2 [3] and in the series with Caco-2 [4] was “permeable” in each case. In addition, the half-life in [12] was 2.7 h. The Cmax amounted to 1.53 µg/mL in series [13] and 1.31 µg/mL in [17]. In series [14], this compound showed a clearance of 0.4 L/h/kg. In addition, the AUC(0-inf) stood at 2.77 µg·h/mL in [15] and 10.4 µg·h/mL in series [6]. Besides, the Vd in series [16] worked out at 0.8 L/kg. Also, the MRT in [5] amounted to 2.2 h. The same compound gave a bioavailability in series [18] of 40%.
For `Cc1ccc(C(=O)NC2CC2)cc1-c1ccc2c(c1)NC(=O)C21CCS(=O)(=O)CC1`, in [8], the IC50 turned out to be 0.075 µM. In addition, the metabolised at 0.5 h, 5 µM was 0% in series [1], 5% in series [9], below 5% in series [2] and 11% in [10]. In addition, in series [21], the Papp A→B is 40 nm/s. Also, in [22], the Papp B→A was 250 nm/s.
In the case of `Cc1ccc(C(=O)NC2CC2)cc1-c1cnc2c(c1)NC(=O)C21CCCC1`, the IC50 in [19] turned out to be 0.0018 µM; in series [8] it was 0.069 µM; in series [20], 0.105 µM. For the same compound, the metabolised at 0.5 h, 5 µM is 16% in series [1], 19% in series [9], below 5% in series [2] and 10% in [10]. For the same compound, in series [11], the cytotoxicity at 200 µM stood at 62%. Also, the Papp result in the series on Caco-2 [3] and with Caco-2 [4] was “permeable” each time.
